How the values were obtained:
[1] = molecular target: T1, Serine/threonine-protein kinase LATS1 (Homo sapiens) (UniProt O95835); conditions: at 10 µM
T1 sequence (whole entry): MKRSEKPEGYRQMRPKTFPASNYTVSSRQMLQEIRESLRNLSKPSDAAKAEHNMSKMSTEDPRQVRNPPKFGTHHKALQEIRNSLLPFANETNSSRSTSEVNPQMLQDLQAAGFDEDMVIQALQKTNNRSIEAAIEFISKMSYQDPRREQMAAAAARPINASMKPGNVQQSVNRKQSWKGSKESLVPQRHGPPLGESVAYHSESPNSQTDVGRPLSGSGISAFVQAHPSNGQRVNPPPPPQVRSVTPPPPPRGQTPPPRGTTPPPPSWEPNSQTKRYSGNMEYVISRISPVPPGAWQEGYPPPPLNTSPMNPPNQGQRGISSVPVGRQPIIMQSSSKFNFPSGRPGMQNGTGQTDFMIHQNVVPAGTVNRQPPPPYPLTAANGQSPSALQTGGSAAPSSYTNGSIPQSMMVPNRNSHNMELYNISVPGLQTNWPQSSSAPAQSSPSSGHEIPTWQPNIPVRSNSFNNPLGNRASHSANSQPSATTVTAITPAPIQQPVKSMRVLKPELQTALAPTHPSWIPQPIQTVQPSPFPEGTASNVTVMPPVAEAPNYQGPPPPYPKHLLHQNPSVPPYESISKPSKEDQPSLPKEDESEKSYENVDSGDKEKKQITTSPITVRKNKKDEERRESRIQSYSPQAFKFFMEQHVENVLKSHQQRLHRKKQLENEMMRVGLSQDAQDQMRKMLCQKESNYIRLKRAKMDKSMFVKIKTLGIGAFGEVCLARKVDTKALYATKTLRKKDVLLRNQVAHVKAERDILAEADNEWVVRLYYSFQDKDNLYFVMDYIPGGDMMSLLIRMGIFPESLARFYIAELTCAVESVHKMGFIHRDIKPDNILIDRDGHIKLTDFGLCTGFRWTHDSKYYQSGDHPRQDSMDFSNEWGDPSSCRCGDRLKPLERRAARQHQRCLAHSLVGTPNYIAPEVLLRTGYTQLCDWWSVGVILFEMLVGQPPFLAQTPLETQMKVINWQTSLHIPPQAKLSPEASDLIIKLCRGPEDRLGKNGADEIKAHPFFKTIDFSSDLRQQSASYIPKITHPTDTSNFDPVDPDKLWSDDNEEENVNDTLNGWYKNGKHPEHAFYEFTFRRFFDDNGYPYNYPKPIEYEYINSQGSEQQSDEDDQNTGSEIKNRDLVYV

[2] = molecular target: T2, Serine/threonine-protein kinase NLK (Homo sapiens) (UniProt Q9UBE8); assay: Selectivity interaction (KinomeScan (DiscoverX)) EUB0000618a NLK; conditions: at 10 µM
T2 sequence (whole entry): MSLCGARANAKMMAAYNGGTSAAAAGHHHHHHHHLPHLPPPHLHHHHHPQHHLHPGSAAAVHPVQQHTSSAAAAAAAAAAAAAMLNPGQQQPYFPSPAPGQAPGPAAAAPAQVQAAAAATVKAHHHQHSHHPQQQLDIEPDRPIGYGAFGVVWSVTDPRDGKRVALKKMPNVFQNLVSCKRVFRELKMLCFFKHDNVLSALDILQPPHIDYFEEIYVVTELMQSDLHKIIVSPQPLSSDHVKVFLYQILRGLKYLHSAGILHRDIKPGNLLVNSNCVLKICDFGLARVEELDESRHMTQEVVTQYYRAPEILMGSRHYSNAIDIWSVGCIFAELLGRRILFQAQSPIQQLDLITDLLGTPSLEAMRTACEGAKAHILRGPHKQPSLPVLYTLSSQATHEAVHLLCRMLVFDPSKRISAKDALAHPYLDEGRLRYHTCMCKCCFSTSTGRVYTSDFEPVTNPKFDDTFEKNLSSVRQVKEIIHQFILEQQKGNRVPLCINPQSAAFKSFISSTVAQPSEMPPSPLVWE

[3] = molecular target: T3, Rhodopsin kinase GRK1 (Homo sapiens) (UniProt Q15835); assay: Selectivity interaction (KinomeScan (DiscoverX)) EUB0000607a GRK1; conditions: at 10 µM
T3 sequence (whole entry): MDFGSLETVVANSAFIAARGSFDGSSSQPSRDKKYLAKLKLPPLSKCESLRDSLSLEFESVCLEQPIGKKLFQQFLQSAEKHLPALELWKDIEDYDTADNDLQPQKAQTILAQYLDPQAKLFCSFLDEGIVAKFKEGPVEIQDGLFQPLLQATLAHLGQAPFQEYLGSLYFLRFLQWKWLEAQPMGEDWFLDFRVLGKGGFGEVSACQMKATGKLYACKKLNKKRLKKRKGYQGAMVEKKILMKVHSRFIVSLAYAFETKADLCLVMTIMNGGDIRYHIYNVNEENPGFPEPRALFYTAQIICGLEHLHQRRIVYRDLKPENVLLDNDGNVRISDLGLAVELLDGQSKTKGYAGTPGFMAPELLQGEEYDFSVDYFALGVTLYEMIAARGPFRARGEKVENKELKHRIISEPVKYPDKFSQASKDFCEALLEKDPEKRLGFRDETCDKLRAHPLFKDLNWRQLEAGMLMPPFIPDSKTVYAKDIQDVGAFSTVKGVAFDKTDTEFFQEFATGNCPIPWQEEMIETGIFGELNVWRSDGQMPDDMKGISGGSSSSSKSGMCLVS

[4] = molecular target: T4, Mitogen-activated protein kinase kinase kinase 3 (Homo sapiens) (UniProt Q99759); assay: Selectivity interaction (KinomeScan (DiscoverX)) EUB0001619a MAP3K3; conditions: at 1 µM
T4 sequence (whole entry): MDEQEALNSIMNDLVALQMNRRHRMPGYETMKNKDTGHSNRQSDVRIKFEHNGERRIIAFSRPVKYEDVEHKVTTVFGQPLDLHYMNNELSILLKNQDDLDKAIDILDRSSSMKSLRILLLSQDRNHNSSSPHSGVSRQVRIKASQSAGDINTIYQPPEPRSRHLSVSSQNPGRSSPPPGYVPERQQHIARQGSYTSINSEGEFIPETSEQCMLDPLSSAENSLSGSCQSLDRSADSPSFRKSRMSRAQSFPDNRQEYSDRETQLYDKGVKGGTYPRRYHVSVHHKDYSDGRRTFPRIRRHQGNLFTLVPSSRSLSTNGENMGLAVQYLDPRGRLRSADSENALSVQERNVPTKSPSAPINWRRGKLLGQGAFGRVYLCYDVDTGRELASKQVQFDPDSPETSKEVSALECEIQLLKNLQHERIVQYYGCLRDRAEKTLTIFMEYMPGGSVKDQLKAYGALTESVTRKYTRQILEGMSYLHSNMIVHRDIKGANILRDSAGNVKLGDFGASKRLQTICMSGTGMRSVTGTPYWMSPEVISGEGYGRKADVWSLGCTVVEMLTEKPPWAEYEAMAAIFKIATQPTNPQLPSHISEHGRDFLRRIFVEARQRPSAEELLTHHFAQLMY

[5] = molecular target: Ribosomal protein S6 kinase alpha-4 (Homo sapiens) (UniProt O75676); assay: Selectivity interaction (KinomeScan (DiscoverX)) EUB0000045b RPS6KA4; conditions: at 10 µM
[6] = molecular target: Calcium/calmodulin-dependent protein kinase type 1G (Homo sapiens) (UniProt Q96NX5); assay: Selectivity interaction (KinomeScan (DiscoverX)) EUB0001049a CAMK1G; conditions: at 1 µM
Chain of Calcium/calmodulin-dependent protein kinase type 1G (Homo sapiens) (Q96NX5 whole entry): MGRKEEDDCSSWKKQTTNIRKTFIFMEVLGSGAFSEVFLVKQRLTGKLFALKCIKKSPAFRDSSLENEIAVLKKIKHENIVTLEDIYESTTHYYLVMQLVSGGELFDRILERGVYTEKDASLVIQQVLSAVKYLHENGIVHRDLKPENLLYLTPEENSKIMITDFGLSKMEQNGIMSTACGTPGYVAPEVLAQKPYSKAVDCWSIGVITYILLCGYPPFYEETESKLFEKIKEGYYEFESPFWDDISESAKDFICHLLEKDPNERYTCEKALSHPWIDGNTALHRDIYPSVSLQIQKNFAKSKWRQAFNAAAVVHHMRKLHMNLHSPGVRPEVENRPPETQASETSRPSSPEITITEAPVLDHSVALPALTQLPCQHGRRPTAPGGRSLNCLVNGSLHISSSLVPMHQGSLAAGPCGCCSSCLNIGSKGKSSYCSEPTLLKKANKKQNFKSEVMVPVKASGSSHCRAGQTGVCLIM

Chain of Ribosomal protein S6 kinase alpha-4 (Homo sapiens) (O75676 whole entry, looked up): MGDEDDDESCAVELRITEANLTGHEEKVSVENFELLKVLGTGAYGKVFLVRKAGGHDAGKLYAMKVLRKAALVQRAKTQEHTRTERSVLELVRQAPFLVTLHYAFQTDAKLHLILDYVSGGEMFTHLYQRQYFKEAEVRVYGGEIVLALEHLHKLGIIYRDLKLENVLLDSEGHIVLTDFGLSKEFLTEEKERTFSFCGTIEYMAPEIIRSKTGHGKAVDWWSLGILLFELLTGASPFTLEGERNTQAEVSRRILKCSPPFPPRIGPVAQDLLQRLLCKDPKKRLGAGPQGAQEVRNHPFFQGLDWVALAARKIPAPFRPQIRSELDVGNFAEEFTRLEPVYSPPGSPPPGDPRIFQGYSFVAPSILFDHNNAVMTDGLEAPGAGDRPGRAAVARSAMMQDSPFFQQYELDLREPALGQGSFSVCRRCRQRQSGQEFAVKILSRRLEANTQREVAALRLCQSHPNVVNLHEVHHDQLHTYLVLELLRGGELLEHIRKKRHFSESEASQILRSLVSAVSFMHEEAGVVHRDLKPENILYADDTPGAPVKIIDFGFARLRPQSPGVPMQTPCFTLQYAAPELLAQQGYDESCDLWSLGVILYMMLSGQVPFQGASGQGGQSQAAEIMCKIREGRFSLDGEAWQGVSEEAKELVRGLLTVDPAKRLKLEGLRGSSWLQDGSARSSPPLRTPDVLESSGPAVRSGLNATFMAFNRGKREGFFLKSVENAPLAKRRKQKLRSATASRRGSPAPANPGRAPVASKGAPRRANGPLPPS

`CCN(CC)CCCCNc1ncc2cc(-c3cc(OC)cc(OC)c3)c(NC(=O)NC(C)(C)C)nc2n1` showed a % of control [1] of 100%.
Compound `O[C@H]1CC[C@H](Nc2ncc3nc(Nc4c(F)cc(F)cc4F)n([C@H]4CCOC4)c3n2)CC1` has a % of control [2] of 5.2%.
`CNC(=O)Nc1ccc(-c2nc(N3CC4CCC(C3)O4)c3cnn(C4CCC5(CC4)OCCO5)c3n2)cc1` showed a % of control [3] of 100%.
`N#Cc1cccc(-c2c[nH]c3ncnc(N4CCOCC4)c23)c1` was tested, and the % of control [4] was 8.2%.
With `C=CC(=O)Nc1cc(-n2c(=O)ccc3cnc4ccc(-c5ccc(NS(C)(=O)=O)cc5)cc4c32)ccc1C` the % of control [5] was 81%.
With `COc1cc(Nc2nc(C)cc(-c3cnn4nc(OC)ccc34)n2)cc(C(F)(F)F)c1` the % of control [6] was 95%.

Source: ChEMBL document CHEMBL5465560, “Selectivity Literature for EUbOPEN Chemogenomic Library” (2024)
